{"source": "PubChem BioAssay AID1259407", "about": "(Chemical Carcinogenesis Research Information System (CCRIS), 2018)", "system": "CCRIS mutagenicity, Ames/micronucleus/aberration tests", "test": "CCRIS mutagenicity studies", "note": "Calls of active or inactive are those of the source. How the calls were made is not given here.", "data": [{"smiles": "O=[N+]([O-])C(Br)(Br)Br", "values": [{"measurement": "mutagenic call", "setting": "Test System: AMES SALMONELLA TYPHIMURIUM, Strain/Indicator: TA98, Metabolic Activation: NONE, Method: PREINCUBATION", "result": "inactive; negative"}, {"measurement": "mutagenic call", "setting": "Test System: AMES SALMONELLA TYPHIMURIUM, Strain/Indicator: TA100, Metabolic Activation: HAMSTER, LIVER, S-9, AROCLOR 1254 (5%), Method: PREINCUBATION", "result": "inactive; negative"}, {"measurement": "mutagenic call", "setting": "Test System: AMES SALMONELLA TYPHIMURIUM, Strain/Indicator: TA100, Metabolic Activation: HAMSTER, LIVER, S-9, AROCLOR 1254 (10 OR 30%), Method: PREINCUBATION", "result": "inactive; negative"}, {"measurement": "mutagenic call", "setting": "Test System: AMES SALMONELLA TYPHIMURIUM, Strain/Indicator: TA100, Metabolic Activation: HAMSTER, LIVER, S-9, AROCLOR 1254 (30%), Method: PREINCUBATION", "result": "active; positive"}, {"measurement": "mutagenic call", "setting": "Test System: AMES SALMONELLA TYPHIMURIUM, Strain/Indicator: TA100, Metabolic Activation: NONE, Method: PREINCUBATION", "result": "inactive; negative"}, {"measurement": "mutagenic call", "setting": "Test System: AMES SALMONELLA TYPHIMURIUM, Strain/Indicator: TA100, Metabolic Activation: RAT, LIVER, S-9, AROCLOR 1254 (5%), Method: PREINCUBATION", "result": "inactive; negative"}, {"measurement": "mutagenic call", "setting": "Test System: AMES SALMONELLA TYPHIMURIUM, Strain/Indicator: TA100, Metabolic Activation: RAT, LIVER, S-9, AROCLOR 1254 (10%), Method: PREINCUBATION", "result": "inactive; negative"}, {"measurement": "mutagenic call", "setting": "Test System: AMES SALMONELLA TYPHIMURIUM, Strain/Indicator: TA1535, Metabolic Activation: RAT, LIVER, S-9, AROCLOR 1254 (5%), Method: PREINCUBATION", "result": "inactive; negative"}, {"measurement": "mutagenic call", "setting": "Test System: Ames Salmonella typhimurium, Strain/Indicator: RSJ100, Metabolic Activation: None, Method: Standard plate", "result": "inactive; negative"}, {"measurement": "mutagenic call", "setting": "Test System: Ames Salmonella typhimurium, Strain/Indicator: RSJ 100, Metabolic Activation: Rat, Liver, S-9, Aroclor, Method: Standard plate", "result": "inactive; negative"}, {"measurement": "mutagenic call", "setting": "Test System: Ames Salmonella typhimurium, Strain/Indicator: RSJ100, Metabolic Activation: Rat, Liver, S-9, Aroclor, Method: Standard plate", "result": "inactive; negative"}, {"measurement": "mutagenic call", "setting": "Test System: Ames Salmonella typhimurium, Strain/Indicator: TA98, Metabolic Activation: None, Method: Standard plate", "result": "inactive; negative"}, {"measurement": "mutagenic call", "setting": "Test System: Ames Salmonella typhimurium, Strain/Indicator: TA98, Metabolic Activation: Rat, Liver, S-9, Aroclor, Method: Standard plate", "result": "inactive; negative"}, {"measurement": "mutagenic call", "setting": "Test System: Ames Salmonella typhimurium, Strain/Indicator: TA100, Metabolic Activation: None, Method: Standard plate", "result": "inactive; negative"}, {"measurement": "mutagenic call", "setting": "Test System: Ames Salmonella typhimurium, Strain/Indicator: TA100, Metabolic Activation: Rat, Liver, S-9, Aroclor, Method: Standard plate", "result": "inactive; negative"}, {"measurement": "mutagenic call", "setting": "Test System: Ames Salmonella typhimurium, Strain/Indicator: TA104, Metabolic Activation: None, Method: Standard plate", "result": "inactive; negative"}, {"measurement": "mutagenic call", "setting": "Test System: Ames Salmonella typhimurium, Strain/Indicator: TA104, Metabolic Activation: Rat, Liver, S-9, Aroclor, Method: Standard plate", "result": "inactive; negative"}, {"measurement": "mutagenic call", "setting": "Test System: Ames Salmonella typhimurium, Strain/Indicator: TPT100, Metabolic Activation: None, Method: Standard plate", "result": "inactive; negative"}]}, {"smiles": "[Cl][Pd-2]([Cl])([Cl])([Cl])([Cl])[Cl]", "values": [{"measurement": "mutagenic call", "setting": "Test System: AMES SALMONELLA TYPHIMURIUM, Strain/Indicator: TA97A, Metabolic Activation: NONE, Method: STANDARD PLATE", "result": "inactive; negative"}, {"measurement": "mutagenic call", "setting": "Test System: AMES SALMONELLA TYPHIMURIUM, Strain/Indicator: TA97A, Metabolic Activation: RAT, LIVER, S-9, PHENOBARBITAL AND 5,6-BENZOFLAVONE, Method: STANDARD PLATE", "result": "inactive; negative"}, {"measurement": "mutagenic call", "setting": "Test System: AMES SALMONELLA TYPHIMURIUM, Strain/Indicator: TA97A, Metabolic Activation: RAT, LIVER, S-9, PHENOBARBITAL AND BETA-NAPHTHOFLAVONE, Method: STANDARD PLATE", "result": "inactive; negative"}, {"measurement": "mutagenic call", "setting": "Test System: AMES SALMONELLA TYPHIMURIUM, Strain/Indicator: TA98, Metabolic Activation: NONE, Method: STANDARD PLATE", "result": "inactive; negative"}, {"measurement": "mutagenic call", "setting": "Test System: AMES SALMONELLA TYPHIMURIUM, Strain/Indicator: TA98, Metabolic Activation: RAT, LIVER, S-9, PHENOBARBITAL AND 5,6-BENZOFLAVONE, Method: STANDARD PLATE", "result": "inactive; negative"}, {"measurement": "mutagenic call", "setting": "Test System: AMES SALMONELLA TYPHIMURIUM, Strain/Indicator: TA98, Metabolic Activation: RAT, LIVER, S-9, PHENOBARBITAL AND BETA-NAPHTHOFLAVONE, Method: STANDARD PLATE", "result": "inactive; negative"}, {"measurement": "mutagenic call", "setting": "Test System: AMES SALMONELLA TYPHIMURIUM, Strain/Indicator: TA100, Metabolic Activation: NONE, Method: STANDARD PLATE", "result": "inactive; negative"}, {"measurement": "mutagenic call", "setting": "Test System: AMES SALMONELLA TYPHIMURIUM, Strain/Indicator: TA100, Metabolic Activation: RAT, LIVER, S-9, PHENOBARBITAL AND 5,6-BENZOFLAVONE, Method: STANDARD PLATE", "result": "inactive; negative"}, {"measurement": "mutagenic call", "setting": "Test System: AMES SALMONELLA TYPHIMURIUM, Strain/Indicator: TA100, Metabolic Activation: RAT, LIVER, S-9, PHENOBARBITAL AND BETA-NAPHTHOFLAVONE, Method: STANDARD PLATE", "result": "inactive; negative"}, {"measurement": "mutagenic call", "setting": "Test System: AMES SALMONELLA TYPHIMURIUM, Strain/Indicator: TA102, Metabolic Activation: NONE, Method: STANDARD PLATE", "result": "inactive; negative"}, {"measurement": "mutagenic call", "setting": "Test System: AMES SALMONELLA TYPHIMURIUM, Strain/Indicator: TA102, Metabolic Activation: RAT, LIVER, S-9, PHENOBARBITAL AND 5,6-BENZOFLAVONE, Method: STANDARD PLATE", "result": "inactive; negative"}, {"measurement": "mutagenic call", "setting": "Test System: AMES SALMONELLA TYPHIMURIUM, Strain/Indicator: TA102, Metabolic Activation: RAT, LIVER, S-9, PHENOBARBITAL AND BETA-NAPHTHOFLAVONE, Method: STANDARD PLATE", "result": "inactive; negative"}]}]}
